The text below walks through data of ChEMBL document CHEMBL3879899, “Gastrin releasing peptide compounds” (2011).

The source made the active and inactive calls. No cut-off for these calls is given here. Where a SMILES comes first, the peptide text is derived from it. The star is where a group is joined. Me2Gly = CN(C)CC(=O)*; Acm = CC(=O)NC*

Test system in one data set: not listed separately
Briefly: Drug internalization in human PC3 cells after 40 mins by gamma counting method. The data set is classed as ADME, cell-based. The settings on record: pc-3, 40 min.
The molecule `CSCC[C@H](NC(=O)[C@H](CC(C)C)NC(=O)[C@H](Cc1cnc[nH]1)NC(=O)CNC(=O)[C@@H](NC(=O)[C@H](C)NC(=O)[C@H](Cc1c[nH]c2ccccc12)NC(=O)[C@H](CCC(N)=O)NC(=O)[C@H](CC(N)=O)NC(=O)CNC(=O)[C@H](CC(C)C)NC(=O)[C@H](CCCN=C(N)N)NC(=O)[C@H](CCC(N)=O)NC(=O)[C@@H]1CCC(=O)N1)C(C)C)C(N)=O` [BOMBESIN] showed a Drug uptake of 59%.

The target of another data set is T1, Neuromedin-B receptor (Rattus norvegicus, UniProt P24053).
T1 sequence (P24053 whole entry): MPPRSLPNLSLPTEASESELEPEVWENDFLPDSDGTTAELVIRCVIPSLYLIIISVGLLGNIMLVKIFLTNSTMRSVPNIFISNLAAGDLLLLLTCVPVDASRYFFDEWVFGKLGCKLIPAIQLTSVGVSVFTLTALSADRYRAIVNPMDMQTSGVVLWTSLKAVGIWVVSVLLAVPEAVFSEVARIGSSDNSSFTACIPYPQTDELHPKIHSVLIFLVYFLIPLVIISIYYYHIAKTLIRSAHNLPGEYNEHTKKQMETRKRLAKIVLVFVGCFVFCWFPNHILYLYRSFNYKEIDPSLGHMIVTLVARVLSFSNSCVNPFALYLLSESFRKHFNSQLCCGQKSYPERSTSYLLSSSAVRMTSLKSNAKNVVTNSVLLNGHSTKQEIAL
Briefly: Displacement of [125I]-NMB from NMB receptor in rat C6 cells. The format is cell-based.
Conditions: not given
In general, IC50 refers to the midpoint of a concentration-inhibition curve. Low values mean inhibition by little substance, high ones a need for much substance. As for `CSCC[C@H](NC(=O)[C@H](CC(C)C)NC(=O)[C@H](Cc1cnc[nH]1)NC(=O)CNC(=O)[C@@H](NC(=O)[C@H](C)NC(=O)[C@H](Cc1c[nH]c2ccccc12)NC(=O)[C@H](CCC(N)=O)NC(=O)CN1CCN(CC(=O)O)CCN(CC(=O)O)CCN(CC(=O)O)CC1)C(C)C)C(N)=O`, the half-maximal inhibitory concentration (IC50) is above 250 nM.
The same measure, in the same setting: for `CSCC[C@H](NC(=O)[C@H](CC(C)C)NC(=O)[C@H](Cc1cnc[nH]1)NC(=O)CNC(=O)[C@@H](NC(=O)[C@H](C)NC(=O)[C@H](Cc1c[nH]c2ccccc12)NC(=O)[C@H](CCC(N)=O)NC(=O)[C@H]1CC[C@H](CNC(=O)[C@H]2CC[C@H](CNC(=O)CN3CCN(CC(=O)O)CCN(CC(=O)O)CCN(CC(=O)O)CC3)CC2)CC1)C(C)C)C(N)=O` the value was 0.3 nM.
The molecule `CSCC[C@H](NC(=O)[C@H](CC(C)C)NC(=O)[C@H](Cc1cnc[nH]1)NC(=O)CNC(=O)[C@@H](NC(=O)[C@H](C)NC(=O)[C@H](Cc1c[nH]c2ccccc12)NC(=O)[C@H](CCC(N)=O)NC(=O)[C@H](CC(N)=O)NC(=O)CNC(=O)[C@H](Cc1ccc(O)cc1)NC(=O)[C@H](CCCNC(=N)N)NC(=O)[C@H](CCC(N)=O)NC(=O)[C@H](CCC(=O)O)NC(=O)[C@H]1CCCN1)C(C)C)C(N)=O` had an IC50 of 3.36 nM.
Consider `CSCC[C@H](NC(=O)[C@H](Cc1ccccc1)NC(=O)[C@H](Cc1c[nH]cn1)NC(=O)CNC(=O)[C@@H](NC(=O)[C@H](C)NC(=O)[C@H](Cc1c[nH]c2ccccc12)NC(=O)[C@H](CC(C)C)NC(=O)c1ccc(NC(=O)CNC(=O)CN2CCN(CC(=O)O)CCN(CC(=O)O)CCN(CC(=O)O)CC2)cc1)C(C)O)C(N)=O` (stereo partly specified), for which the half-inhibitory concentration (IC50) lay within 0.07 to 0.8 nM.
Consider `CSCC[C@H](NC(=O)[C@H](CC(C)C)NC(=O)[C@H](Cc1cnc[nH]1)NC(=O)CNC(=O)[C@@H](NC(=O)[C@H](C)NC(=O)[C@H](Cc1c[nH]c2ccccc12)NC(=O)[C@H](CCC(N)=O)NC(=O)[C@H](CCC(=O)O)NC(=O)[C@H](CCCCN)NC(=O)CNC(=O)[C@H](CSCNC(C)=O)NC(=O)[C@H](CO)NC(=O)CN(C)C)C(C)C)C(N)=O`, for which the 50% inhibitory concentration (IC50) was 60 nM.
The same measure, in the same setting: under `CSCC[C@H](NC(=O)[C@H](CC(C)C)NC(=O)[C@H](Cc1cnc[nH]1)NC(=O)CNC(=O)[C@@H](NC(=O)[C@H](C)NC(=O)[C@@H](N)Cc1c[nH]c2ccccc12)C(C)C)C(N)=O` stands above 800 nM.

Test system in a further data set: not listed separately
Description: Drug efflux in human PC3 cells after 2 hrs by gamma counting method. The format is ADME, cell-based. The settings on record: pc-3, 2 h.
In turn, `CSCC[C@H](NC(=O)[C@H](CC(C)C)NC(=O)[C@H](Cc1cnc[nH]1)NC(=O)CNC(=O)[C@@H](NC(=O)[C@H](C)NC(=O)[C@H](Cc1c[nH]c2ccccc12)NC(=O)[C@H](CCC(N)=O)NC(=O)[C@H](CC(N)=O)NC(=O)CNC(=O)[C@H](CC(C)C)NC(=O)[C@H](CCCN=C(N)N)NC(=O)[C@H](CCC(N)=O)NC(=O)[C@@H]1CCC(=O)N1)C(C)C)C(N)=O` [BOMBESIN] came in with a Drug transport of 35%.

The target in a further data set is T2, Gastrin-releasing peptide receptor (Homo sapiens, UniProt P30550). Description: Binding affinity to GRP receptor in human colon smooth muscle after 1 hr by autoradiography.
Conditions: not given
Target sequence in this assay (P30550 whole entry, looked up): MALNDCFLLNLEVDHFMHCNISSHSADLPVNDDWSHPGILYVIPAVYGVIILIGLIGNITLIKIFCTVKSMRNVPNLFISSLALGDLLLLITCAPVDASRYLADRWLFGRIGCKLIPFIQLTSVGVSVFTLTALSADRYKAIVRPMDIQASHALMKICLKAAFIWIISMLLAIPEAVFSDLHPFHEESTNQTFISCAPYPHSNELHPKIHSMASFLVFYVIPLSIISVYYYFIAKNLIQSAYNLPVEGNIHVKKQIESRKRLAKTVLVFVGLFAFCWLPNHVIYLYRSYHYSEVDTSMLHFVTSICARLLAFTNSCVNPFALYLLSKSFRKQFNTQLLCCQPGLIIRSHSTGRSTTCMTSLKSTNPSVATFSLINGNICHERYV
For the molecule `CCCCC(NC(=O)[C@H](Cc1ccccc1)NC(=O)[C@H](Cc1cnc[nH]1)NC(=O)CCNC(=O)[C@@H](NC(=O)[C@H](C)NC(=O)[C@H](Cc1c[nH]c2ccccc12)NC(=O)[C@H](CCC(N)=O)NC(=O)C(N)Cc1ccc(O)cc1)C(C)C)C(N)=O` (stereo in doubt), the result was Active.

Another data set deals with T2, Gastrin-releasing peptide receptor. Briefly: Displacement of [125I]-BBN from GRPR in human PC3 cells after 1 hr by compuGamma counting or microplate scintillation counting method. The format is cell-based, PC-3.
Conditions: not given
A general note: In a radioligand displacement assay an active substance lowers the binding of a labelled ligand.
Target sequence in this assay (P30550 whole entry): as the sequence (P30550 whole entry, looked up) above
In turn, `CSCC[C@H](NC(=O)[C@H](CC(C)C)NC(=O)[C@H](Cc1cnc[nH]1)NC(=O)CNC(=O)[C@@H](NC(=O)[C@H](C)NC(=O)[C@H](Cc1c[nH]c2ccccc12)NC(=O)[C@H](CCC(N)=O)NC(=O)[C@H](CC(N)=O)NC(=O)CNC(=O)[C@H](Cc1ccc(O)cc1)NC(=O)[C@H](CCCNC(=N)N)NC(=O)[C@H](CCC(N)=O)NC(=O)[C@H](CCC(=O)O)NC(=O)[C@H]1CCCN1)C(C)C)C(N)=O` showed an IC50 of 2.2 nM.
On the same count and under the same terms, under `CSCC[C@H](NC(=O)[C@H](CC(C)C)NC(=O)[C@H](Cc1cnc[nH]1)NC(=O)CNC(=O)[C@@H](NC(=O)[C@H](C)NC(=O)[C@H](Cc1c[nH]c2ccccc12)NC(=O)[C@H](CCC(N)=O)NC(=O)CN1CN(c2ccccc2)C2(CCN(C(=O)CN3CCN(CC(=O)O)CCN(CC(=O)O)CCN(CC(=O)O)CC3)CC2)C1=O)C(C)C)C(N)=O` stands above 50 nM; under `CSCC[C@H](NC(=O)[C@H](CC(C)C)NC(=O)[C@H](Cc1cnc[nH]1)NC(=O)CNC(=O)[C@@H](NC(=O)[C@H](C)NC(=O)[C@H](Cc1c[nH]c2ccccc12)NC(=O)[C@H](CCC(N)=O)NC(=O)C[C@@H]1NC(=O)C2C[C@H](NC(=O)CN3CCN(CC(=O)O)CCN(CC(=O)O)CCN(CC(=O)O)CC3)CN2C1=O)C(C)C)C(N)=O` (stereo partly specified), above 50 nM.
On the same count and under the same terms, under `CSCC[C@H](NC(=O)[C@H](CC(C)C)NC(=O)[C@H](Cc1cnc[nH]1)NC(=O)CNC(=O)[C@@H](NC(=O)[C@H](C)NC(=O)[C@H](Cc1c[nH]c2ccccc12)NC(=O)[C@H](CCC(N)=O)NC(=O)[C@H](CCCNC(=N)N)NC(=O)[C@H](CCCCNC(=O)COCCOCCOCC(=O)N[C@H]1CC[C@]2(C)[C@H]3C[C@H](O)[C@]4(C)[C@@H]([C@H](C)CCC(=O)O)CC[C@H]4[C@@H]3CC[C@]2(C)C1)NC(=O)CNC(=O)CN1CCN(CC(=O)O)CCN(CC(=O)O)CCN(CC(=O)O)CC1)C(C)C)C(N)=O` stands above 50 nM.
Consider `CSCC[C@H](NC(=O)[C@H](CC(C)C)NC(=O)[C@H](Cc1cnc[nH]1)NC(=O)CNC(=O)[C@@H](NC(=O)[C@H](C)NC(=O)[C@H](Cc1c[nH]c2ccccc12)NC(=O)[C@H](CCC(N)=O)NC(=O)[C@@H]1Cc2cccc3c2N1C(=O)[C@@H](NC(=O)CN1CCN(CC(=O)O)CCN(CC(=O)O)CCN(CC(=O)O)CC1)CC3)C(C)C)C(N)=O`, for which the half-inhibitory concentration (IC50) is above 50 nM.
The same measure, in the same setting: for `CSCC[C@H](NC(=O)[C@H](CC(C)C)NC(=O)[C@H](Cc1cnc[nH]1)NC(=O)CNC(=O)[C@@H](NC(=O)[C@H](C)NC(=O)[C@H](Cc1c[nH]c2ccccc12)NC(=O)[C@H](CCC(N)=O)NC(=O)Cn1cnc2ccc(N3CCN(C(=O)CN4CCN(CC(=O)O)CCN(CC(=O)O)CCN(CC(=O)O)CC4)CC3)cc2c1=O)C(C)C)C(N)=O` the value was above 50 nM.
Same read-out and setting: for `CSCC[C@H](NC(=O)[C@H](CC(C)C)NC(=O)[C@H](Cc1cnc[nH]1)NC(=O)CNC(=O)[C@@H](NC(=O)[C@H](C)NC(=O)[C@H](Cc1c[nH]c2ccccc12)NC(=O)[C@H](CCC(N)=O)NC(=O)[C@H](CCCCN)NC(=O)[C@H](CO)NC(=O)CNC(=O)[C@H](CSCNC(C)=O)NC(=O)[C@H](CO)NC(=O)CN(C)C)C(C)C)C(N)=O` (Me2Gly-SC(Acm)GSKQWAVGHLM-NH2) the value was 2 nM; for `CSCC[C@H](NC(=O)[C@H](CC(C)C)NC(=O)[C@H](Cc1cnc[nH]1)NC(=O)CNC(=O)[C@@H](NC(=O)[C@H](C)NC(=O)[C@H](Cc1c[nH]c2ccccc12)NC(=O)[C@H](CCC(N)=O)NC(=O)[C@H](CCCNC(=N)N)NC(=O)[C@H](CCCCNC(=O)CNC(=O)CN1CCN(CC(=O)O)CCN(CC(=O)O)CCN(CC(=O)O)CC1)NC(=O)COCCOCCOCC(=O)N[C@H]1CC[C@]2(C)[C@H]3C[C@H](O)[C@]4(C)[C@@H]([C@H](C)CCC(=O)O)CC[C@H]4[C@@H]3CC[C@]2(C)C1)C(C)C)C(N)=O`, above 50 nM.
`CSCC[C@H](NC(=O)[C@H](CC(C)C)NC(=O)[C@H](Cc1cnc[nH]1)NC(=O)CNC(=O)[C@@H](NC(=O)[C@H](C)NC(=O)[C@H](Cc1c[nH]c2ccccc12)NC(=O)[C@H](CCC(N)=O)NC(=O)[C@@H]1CSC2CC[C@H](NC(=O)CN3CCN(CC(=O)O)CCN(CC(=O)O)CCN(CC(=O)O)CC3)C(=O)N21)C(C)C)C(N)=O` (stereo partly specified) returned an IC50 above 50 nM.
The molecule `CSCC[C@H](NC(=O)[C@H](CC(C)C)NC(=O)[C@H](Cc1cnc[nH]1)NC(=O)CNC(=O)[C@@H](NC(=O)[C@H](C)NC(=O)[C@H](Cc1c[nH]c2ccccc12)NC(=O)[C@H](CCC(N)=O)NC(=O)CN1CCN(C(=O)CN2CCN(CC(=O)O)CCN(CC(=O)O)CCN(CC(=O)O)CC2)CC1)C(C)C)C(N)=O` showed an IC50 above 50 nM.
Still for that read-out and setting: for `CSCC[C@H](NC(=O)[C@H](CC(C)C)NC(=O)[C@H](Cc1cnc[nH]1)NC(=O)CNC(=O)[C@@H](NC(=O)[C@H](C)NC(=O)[C@@H](N)Cc1c[nH]c2ccccc12)C(C)C)C(N)=O` the value was above 800 nM.

Staying with this data set, now noted: pc-3.
The molecule `CSCC[C@H](NC(=O)[C@H](CC(C)C)NC(=O)[C@H](Cc1c[nH]cn1)NC(=O)CNC(=O)[C@@H](NC(=O)[C@H](C)NC(=O)[C@H](Cc1c[nH]c2ccccc12)NC(=O)[C@H](CCC(N)=O)NC(=O)CN1CCCC[C@H](NC(=O)CN2CCN(CC(=O)O)CCN(CC(=O)O)CCN(CC(=O)O)CC2)C1=O)C(C)C)C(N)=O` had an IC50 of 50 nM. In other words, the double-digit nanomolar range.
